Data: paper PMC6680314, “Characterization of the recombinant Brettanomyces anomalus β‐glucosidase and its potential for bioflavouring” (Journal of Applied Microbiology, 2016)

What was measured:
[1] = system: T1, B. anomalus β-glucosidase (YV396 β-glucosidase); test: glucose release, GOD-PAP assay at […] nm, Michaelis-Menten fit; type: biochemical, Brettanomyces anomalus; settings: McIlvaine buffer pH 5.75, 37 °C (optimum of this enzyme); free enzyme; read-out: pH 5.75 37°C / K M
T1 construct: gene GH3 beta-glucosidase; full gene (2523 bp incl. stop, about 840 residues), codon optimised, pET28-YV396-His6, tag kept, E. coli BL21(DE3), Ni-Sepharose and Superdex 200

almond β-glucosidase = system: T2, almond β-glucosidase; test: as above; type: biochemical, Prunus dulcis; settings: McIlvaine buffer pH 5.75, 37 °C; commercial preparation; read-out: pH 5.75 37°C / K M
T2 construct: gene GH1 beta-glucosidase

Km [1] [mM]	Km (almond β-glucosidase) [mM]	Compound
15.1 ± 0.73	0.34 ± 0.08	OC[C@H]1O[C@@H](O[C@H]2[C@H](O)[C@@H](O)C(O)O[C@@H]2CO)[C@H](O)[C@@H](O)[C@@H]1O (stereo partly drawn) [cellobiose]
1.01 ± 0.18	19.6 ± 2.06	OCc1ccccc1O[C@@H]1O[C@H](CO)[C@@H](O)[C@H](O)[C@H]1O [salicin]

Compound	Km [1] [mM]	Km (almond β-glucosidase) [mM]
N#C[C@H](O[C@@H]1O[C@H](CO[C@@H]2O[C@H](CO)[C@@H](O)[C@H](O)[C@H]2O)[C@@H](O)[C@H](O)[C@H]1O)c1ccccc1 [amygdalin]	1 ± 0.05	10.1 ± 0.13
